Laboratory results as given in patent US8497298B2, “Use of benzo-fused heterocycle sulfamide derivatives for lowering lipids and lowering blood glucose levels” (Janssen Pharmaceutica NV, priority 2005, dated 2013).

System: db/db mice
Assay: Female db/db Mouse Assay, Study A: single dose part and dose response part (Example 14)
Format: in vivo
Excerpt: 0.5% Hydroxypropyl Methylcellulose (Methocel) used as vehicle/control.
Db/db mice are susceptible to Type 2 diabetes. […] All of the mice were quarantined for a period of one week before transfer to the animal procedure room. A drop of blood (about 2 microliters) was collected by tail puncture and glucose concentration was detected with a glucometer (OneTouch UltraSmart, Lifescan, Milpitas, Calif.). […] Animals were separated and single housed at least three days prior to the drug treatments to allow acclimation to the new surroundings.
In the second, dose response part of Study A, 48 mice were allocated into 4 treatment groups of 12 mice each.
The dosing volume was 5 mL/kg body weight (0.2 mL for 40 gram mice). The mice were fed ad lib throughout the study. A necropsy was completed 18 hours after last dosing.
Blood glucose levels were measured from blood collected through tail puncture using a glucometer at 1000 hour. The mice were anaesthetized with sodium pentobarbital (1 ml/kg, intraperitoneal [i.p.] injection, SleepAway, Fort Dodge, Iowa) and blood was drawn via cardiac puncture using 1 mL syringe and collected into heparinized tubes. White adipose tissues (WAT) (retroperitoneal and inguinal fat pads), brown adipose tissure (BAT) and skeletal muscles (gastrocnemius and soleus muscle) and stomach contents were dissected and weighed. Plasma samples were obtained by centrifuging whole blood at 2000˜3000 g for 10˜20 minutes at 4° C. and stored at −20° C. for further measurement of insulin, HDL, LDL, total cholesterol and triglyceride.
Plasma insulin concentrations were measured by in both studies using the appropriate rat/mouse insulin enzyme-linked immunosorbent assay (ELISA) kit (EZRMI-13K, LINCO Research, St. Charles, Mo.). Blood samples were diluted 1:4 in charcoal stripped mouse serum that was included in the ELISA kit. The rest of the procedure followed the manufacturers instruction. The total fluorescence was detected using an Orion 1 Microplate Luminometer (Berthold Detection Systems, Pforzheim, Germany).
According to manufacturers protocol, cholesterol measurement was an enzymatic method utilizing cholesterol esterase and cholesterol oxidase conversion followed by a Trinder endpoint; Elimination/catalase method was used for HDL measurement; an enzymatic method with a Trinder endpoint was used for triglyceride measurement.
Data from both parts of the Study (single dose and dose response) was analyzed using the standard two-tailed Student's t-test and are expressed below as means and standard errors.

[1] = dose response part, 10 mg/kg, plasma
[2] = dose response part, 30 mg/kg, plasma
[3] = dose response part, 100 mg/kg, plasma
[4] = single dose part, Compound #8 300 mg/kg
[5] = single dose part, Compound #8 300 mg/kg oral once daily 10 days
[6] = single dose part, Compound #8 300 mg/kg, plasma

NS(=O)(=O)NC[C@H]1COc2cc(Cl)ccc2O1 [Compound #8, (2S)-(−)-N-(6-Chloro-2,3-dihydro-benzo[1,4]dioxin-2-ylmethyl)-sulfamide]
total cholesterol concentrations elevated relative to vehicle (Compound #8, dose not given): 18.7% | Brown Adipose Tissue (dose response part, 10 mg/kg): 0.23 ± 0.01 g | Inguinal fat (dose response part, 10 mg/kg): 2.15 ± 0.11 g | Insulin (dose response part, 10 mg/kg): 11.9 ± 2.5 ng/mL | Muscle (dose response part, 10 mg/kg): 0.140 ± 0.004 g | Ratio (Triglyceride to HDL) (dose response part, 10 mg/kg): 3.5 ± 0.3 | Ratio (fat/muscle) (dose response part, 10 mg/kg): 25.9 ± 0.8 | Retroperitoneal fat (dose response part, 10 mg/kg): 1.47 ± 0.04 g | Glucose (dose response part, 10 mg/kg oral once daily 10 days): 420 ± 10 mg/dL | Cholesterol [1]: 92 ± 3 mg/dL | HDL [1]: 47.1 ± 1.5 mg/dL | Triglyceride [1]: 166 ± 13 mg/dL | Brown Adipose Tissue (dose response part, 30 mg/kg): 0.22 ± 0.01 g | Inguinal fat (dose response part, 30 mg/kg): 1.97 ± 0.07 g | Insulin (dose response part, 30 mg/kg): 10.8 ± 2.9 ng/mL | Muscle (dose response part, 30 mg/kg): 0.141 ± 0.003 g | Ratio (Triglyceride to HDL) (dose response part, 30 mg/kg): 4.1 ± 0.3 | Ratio (fat/muscle) (dose response part, 30 mg/kg): 24.5 ± 0.5 | Retroperitoneal fat (dose response part, 30 mg/kg): 1.49 ± 0.07 g | Glucose (dose response part, 30 mg/kg oral once daily 10 days): 439 ± 13 mg/dL | Cholesterol [2]: 95 ± 2 mg/dL | HDL [2]: 49.2 ± 1.7 mg/dL | Triglyceride [2]: 202 ± 18 mg/dL | Brown Adipose Tissue (dose response part, 100 mg/kg): 0.24 ± 0.00 g | Inguinal fat (dose response part, 100 mg/kg): 2.05 ± 0.09 g | Insulin (dose response part, 100 mg/kg): 3.9 ± 1.4 ng/mL | Muscle (dose response part, 100 mg/kg): 0.140 ± 0.007 g | Ratio (Triglyceride to HDL) (dose response part, 100 mg/kg): 3.3 ± 0.3 | Ratio (fat/muscle) (dose response part, 100 mg/kg): 26.3 ± 1.0 | Retroperitoneal fat (dose response part, 100 mg/kg): 1.55 ± 0.11 g | hyperinsulinemia decreased compared to vehicle treated mice (dose response part, 100 mg/kg): 63.5% | Glucose (dose response part, 100 mg/kg oral once daily 10 days): 394 ± 17 mg/dL | stomach content (dose response part, 100 mg/kg, control 0.35±0.03 g, p<0.05): 0.51 ± 0.04 g | Cholesterol [3]: 102 ± 3 mg/dL | HDL [3]: 51.7 ± 1.7 mg/dL | Triglyceride [3]: 169 ± 10 mg/dL | food intake and body weight (dose response part, 10, 30 and 100 mg/kg groups): no differences | Glucose levels reduced compared to vehicle treated mice (single dose part, 300 mg/kg): 50% | HDL elevated compared to vehicle (single dose part, 300 mg/kg): 22.8% | plasma triglyceride decreased compared to vehicle (single dose part, 300 mg/kg): 39.4% | ratio of triglyceride to HDL reduced (single dose part, 300 mg/kg): 50.2% | stomach content weights versus vehicle at the end of the experiment (single dose part, 300 mg/kg): two times greater | Brown Adipose Tissue [4]: 0.25 ± 0.01 g | Final weight Body weight [4]: 39 ± 0.9 g | Final weight Stomach contents [4]: 0.52 ± 0.07 g | Inguinal fat [4]: 2.28 ± 0.11 g | Muscle [4]: 0.154 ± 0.00 g | Retroperitoneal fat [4]: 1.31 ± 0.07 g | Total chow consumption Day 1-3 [4]: 14 ± 0.9 g | Total chow consumption Day 4-6 [4]: 14.9 ± 1.1 g | Total chow consumption Day 7-9 [4]: 16 ± 0.6 g | Glucose [5]: 210 ± 27 mg/dL | Insulin [5]: 16.0 ± 2.5 ng/mL | Cholesterol [6]: 108 ± 3 mg/dL | HDL [6]: 55.9 ± 1.2 mg/dL | LDL [6]: 3.4 ± 0.2 mg/dL | Ratio (Triglyceride to HDL) [6]: 1.8 ± 0.3 | Triglyceride [6]: 98 ± 13 mg/dL | Ratio (fat/muscle) (single dose part, Compound #8 300 mg/kg, total inguinal and retroperitoneal fat/muscle weight): 23.4 ± 0.9
